In assay [1] the test system is child with epilepsy, ataxia, language delay, fat intolerance, dicarboxylic aciduria. The assay is described as follows: Treatment of developmental delay (case, Example 4). As to conditions: daily dose of 0.1 to 0.3 g/kg/day. Format: in vivo, human. Here is the method:
A child with epilepsy, ataxia, language delay, and fat intolerance, and dicarboxylic aciduria was treated with triacetyluridine at a daily dose of 0.1 to 0.3 g/kg/day.

In assay [2] the test system is taxol-treated mice. The assay is described as follows: Taxol-induced neuropathy, tail-flick latency. Format: in vivo. As to conditions: nine days after initiation of taxol 21.6 mg/kg/day i.p. for 6 days; oral triacetyluridine 4000 mg/kg b.i.d. How it is done: Two groups of 10 mice each were treated with taxol, 21.6 mg/kg/day for 6 consecutive days by intraperitoneal injection. An additional group of 10 mice received injections of vehicle alone. One of the groups of taxol-treated mice received oral triacetyluridine, 4000 mg/kg b.i.d. Nine days after the initiation of taxol treatments, nociceptive sensory deficits were tested by determining tail-flick latency after exposure of the tip of the tail to focused thermal radiation with an infrared heat lamp. In this system, delays in the tail-flick response to radiant heat correlate with sensory nerve deficits.

The subject of assay [3] is MPTP treated mice. The assay is described as follows: MPTP model of Parkinson's disease, second study. Format: in vivo, C57/BL6 mice. To be noted: MPTP b.i.d. for 2 days, sacrificed on day 9, mean ± SEM. Here is the method: A second study using MPTP (25 mg/kg i.p. b.i.d. for 2 days) was performed. […] TAU or vehicle was given orally (dose of TAU=4 g/kg bw b.i.d.) starting the day before MPTP administration and ending on day 8. Mice were sacrificed on day 9.

Assay [4] concerns 3NP treated mice. The assay is described as follows: 3-nitropropionic acid (3NP) model of Huntington's disease. Type of assay: in vivo, Swiss mice. As to conditions: at anytime during the study. Here is the method:
Male 6-8 month old Swiss mice (National Cancer Institute; NCI, Frederick, Md.) were treated with 3NP (65 mg/kg i.p.) daily for 4 days to induce mortality, neuronal cell loss and behavioral impairment with n=8/group. […] On day 9, the mice were perfuse fixed with 10% buffered formalin and processed for silver staining to detect neuronal damage. […] There was no mortality in the 3NP+TAU group, but 3 of 8 mice died in the vehicle+3NP group.
Behavioral scoring of the 3NP treated mice was to determine whether there was any motor impairment at anytime during the study. There were 88% of the control+3NP treated mice with behavioral impairment indicated by gross observation. A decreased incidence of impairment of only 50% was found in the TAU+3NP treated mice.
The silver staining was analyzed by a pathologist blinded to the identity of tissue samples. […] However, in the control+3NP treated mice, silver staining of synaptic terminals in the striatal area (caudate/putamen area) and substantia nigra was pronounced. Silver impregnation of axons and/or synaptic terminals in the thalamus, deep mesencephalon and/or reticular formation (medulla) was also found in […] of the control+3NP treated mice. The substantia nigra projects to the striatum and these areas are especially vulnerable to damage by 3NP. The damage to the substantia nigra and striatum was prevented by TAU.

The subject of assay [5] is 3NP treated mice. Nature of the assay: 3-nitropropionic acid (3NP) model of epilepsy. To be noted: for Latency to clonic seizure: mean ± SEM. Format: in vivo, CD-1 mice. An excerpt:
3-nitropropionic acid (3NP) is a mitochondrial toxin that acts by inhibiting Complex II of the respiratory chain; it is used to induce brain lesions similar to those characteristic of Huntington's disease. Seizures can also be induced by the use of 3NP as a model of epilepsy and mitochondrial dysfunction. Urbanska et al., Eur J Pharmacol, 359: 55-8 (1998). Male CD-1 mice (National Cancer Institute, NCI, Frederick. Md.) weighing between […] were used throughout. Mice were divided into groups of 5 and animals for each group were randomly chosen from different cages to avoid possible influence of age. The mice were maintained on a 12 hr light dark cycle with free access to water and food. All experiments were performed during the light period between 9:00 and 16:00 hr. Mice (n=17-20) were given 160 mg/kg 3NP and followed for seizures. 3NP was made up at 16 mg or 18 mg/ml in sterile water (pH: 7.4). 3NP was administered i.p. in a volume of 0.1 m/10 g body weight. […] Seizures were assessed similar to the methods previously described (Roberts & Keith, J Pharmacol Exp Ther, 270:505-11, 1994; Urbanska et al., Eur J Pharmacol, 359:55-8, 1998).
Behavioral observations were performed within 120 min following application of 3-NP. Three major categories of convulsive seizure response were been considered and recorded: • 1. Clonic movements: the movements of the forelimbs accompanied by facial twitching; • 2. Explosive clonic movements: the movement of all four limbs involving running, jumping and bouncing; • 3. Tonic response: including tonic flexion and tonic extension of the all four limbs.
Mortality rate was evaluated at 120 min after 3NP injection.

Assay [6] has as its system mice given intrastriatal QA. Nature of the assay: Quinolinic acid (QA) model of excitotoxicity. Format: in vivo, Swiss mice. To be noted: TAU 4 g/kg bw p.o. b.i.d.
The subject of assay [7] is mice infused with sodium azide. The assay is described as follows: Subcutaneous azide infusion: mortality, body weight, TUNEL staining. To be noted: mouse, in vivo. Details: species or system C57/BL/6N mice.
Assay [8] has as its system MPTP treated mice. The assay is described as follows: MPTP model of Parkinson's disease, first study.
Where [9] appears, read: 160 mg/kg 3NP i.p., TAU 4 g/kg p.o. 2 hours prior, within 120 min.

Results on one compound are retold here after US7807654B2, “Compositions and methods for treatment of mitochondrial diseases” (Wellstat Therapeutics Corporation, priority 1998, dated 2010).

In general, mortality refers to the percentage killed. High values mean fewer survivors, low ones more survivors. As to `CC(=O)OC[C@H]1O[C@@H](n2ccc(=O)[nH]c2=O)[C@H](OC(C)=O)[C@@H]1OC(C)=O` [TAU, triacetyluridine], in assay [1], the “decline in seizure frequency” value came out at 50%. Also, the Tail flick latency in assay [2] turned out to be 11.9 ± 0.7 s. For the same compound, the “Striatal DA, MPTP-treated mice” value is on record as 26.7 ± 0.9 ng DA/mg protein in assay [3] and 37.9 ± 7.4 ng DA/mg protein in assay [8] (first study, eight days after stopping MPTP, mean ± SEM). Besides, in assay [4], the “mice with behavioral (motor) impairment by gross observation” value came to 50%. The “Latency to clonic seizure” value in assay [5] (160 mg/kg 3NP i.p., TAU 4 g/kg p.o. 2 hours prior) came to 40.8 min; in assay [5] (160 mg/kg 3NP i.p., TAU 4 g/kg p.o. 2 hours prior, listed as TAU + 3NP), 40.8 ± 4.9 min. The “% Clonic seizures” value in assay [5] (setting [9]) was 70.6%. Also, the “% Running seizures” value in assay [5] (setting [9]) came to 5.9%. Also, the “% Mortality” value in assay [5] (at 120 min after 3NP injection) is recorded as 11.8%. The figures for the “percent of mice surviving the 7 days” value in assay [6] (50 nmoles QA bilaterally in striatum) and in assay [6] (100 nmoles QA bilaterally in striatum) were 73% and 19%, respectively. The “mortality due to 60 μg/hr azide infusion” value in assay [7] worked out at 30%. Moreover, in assay [8] (MPTP 30 mg/kg i.p. b.i.d. for 1.5 days, TAU 4 g/kg p.o. b.i.d.), the mortality worked out at 28.6%.
